Reference: US9987368B2, “Pharmaceutical composition comprising polypeptide” (SANTEN PHARMACEUTICAL CO., LTD., priority 2015, dated 2018)

How the values were obtained:
[1] = Depot formation evaluation test (2): solvents of the polypeptide A; format: physicochemical
Method: Solvents of the polypeptide A were examined.
Compositions 2 to 6 and Comparative Examples 6 and 7 were prepared by adding 0.01 mL of an aqueous solution of the polypeptide A at 1% (w/v) (containing 1% by mass of the polypeptide A per 100 mL of water) to 0.09 mL of each of various solvents, followed by stirring. 0.005 mL of each of the compositions was administered to 1 mL of the Dulbecco's phosphate buffered saline (+), and the formation of a depot was visually checked.

[2] = Depot formation evaluation test (1): gelatinizers in DMSO/water; format: physicochemical; details: solution of DMSO/water at the volume ratio (9:1)
Method: Depot (deposited mass) formations of various kinds of gelatinizers were examined.
Compositions 1 to 6 were prepared by blending each of various kinds of gelatinizers to a solvent of DMSO/water (volume ratio of 9:1) such that the gelatinizer is contained at 0.1% (w/v) (0.1% by mass of the gelatinizer is contained per 100 mL of the solution of DMSO/water). Then, calcium chloride dihydrate and magnesium chloride hexahydrate were dissolved in Dulbecco's phosphate buffered saline (−) (Product No. D-5652 manufactured by Sigma-Aldrich) to prepare Dulbecco's phosphate buffered saline (+). 0.005 mL of each of the compositions was added to 1 mL of the Dulbecco's phosphate buffered saline (+), and the formation of a depot was visually checked. The formation of a depot was evaluated in such a way that the depot is determined as formed if a mass formed of the composition deposited is observed.

[3] = test system: adjuvant arthritis models in rats; details: US 2007/0149574; cited from earlier work
[4] = Dissolution performance evaluation test; format: physicochemical; details: for Property: visually checked
Method: Drug dissolving abilities of various solutions were examined.
The compound represented by the above formula (2) (2-[[[2-[(hydroxyacetyl)amino]-4-pyridinyl]methyl]thio]-N-[4-(trifluoromethoxy)phenyl]-3-pyridinecarboxamide, hereinafter also referred to as the drug A; prepared in accordance with the method described in the specification of US Patent Application Publication No. 2007/0149574) was added to each solvent (total 1 mL) out of various solvents of DMSO (GAYLORD), PEG 400 (Nacalai Tesque), and water, and was stirred at room temperature (25° C.) overnight (for 8 hours). Then, the properties of the resultant solvents were visually checked.

cancer models in mice = details: US 2007/0149574; cited from earlier work
[5] = test system: choroidal neovascularization models in rats; details: US 2007/0149574; cited from earlier work
[6] = test system: VEGF-induced HUVEC proliferation; details: US 2007/0149574; cited from earlier work

Row | Property ([4]; Test 1: Drug A 20 mg in DMSO 0.9 mL + water 0.1 mL, stirred at room temperature (25° C.) overnight) | Property ([4]; Test 2: Drug A 60 mg in DMSO 0.9 mL + water 0.1 mL, stirred at 25° C. overnight) | Property ([4]; Test 3: Drug A 60 mg in water 1 mL, stirred at 25° C. overnight) | Property ([4]; Test 4: Drug A 25 mg in PEG 400 1 mL, stirred at 25° C. overnight) | Property ([4]; Test 5: Drug A 25 mg in PEG 400 0.9 mL + water 0.1 mL, stirred at 25° C. overnight) | Property ([4]; Test 6: Drug A 25 mg in PEG 400 0.8 mL + water 0.2 mL, stirred at 25° C. overnight) | Property ([4]; Test 7: Drug A 25 mg in water 1 mL, stirred at 25° C. overnight) | Dissolution of the drug in solution containing DMSO or PEG 400 ([4]; solution containing DMSO or PEG 400) | Dissolution of the drug in water ([4]; water) | Molecule | Depot formation ([1]; DMSO, PEG 200, PEG 400, glycofurol and N-methylpyrrolidone used as the solvents) | Depot formation ([1]; ethanol and N,N-dimethylacetamide used as the solvents) | Depot formation [2] | paw edema inhibitory action [3] | tumor growth inhibitory action (cancer models in mice) | choroidal neovascularization inhibitory action [5] | cell proliferation inhibitory action [6]
1 |  |  |  |  |  |  |  |  |  | Ac-(Arg-Ala-Asp-Ala)4-NH2 [polypeptide A] | formed a depot | did not form a depot | formed a depot |  |  |  | 
2 | Solution | Solution | Suspension | Solution | Solution | Solution | Suspension | can dissolve the drug | cannot be dissolved in water | O=C(CO)Nc1cc(CSc2ncccc2C(=O)Nc2ccc(OC(F)(F)F)cc2)ccn1 [Drug A, 2-[[[2-[(hydroxyacetyl)amino]-4-pyridinyl]methyl]thio]-N-[4-(trifluoromethoxy)phenyl]-3-pyridinecarboxamide] |  |  |  | demonstrated a paw edema inhibitory action | demonstrated a tumor growth inhibitory action | demonstrated a choroidal neovascularization inhibitory action | demonstrated a cell proliferation inhibitory action
